{
  "source": "paper PMC3661926",
  "about": "(Acta Neuropathologica, 2013)",
  "key": {"[1]": {"tested_on": "cultured human peripheral lymphocytes"}, "RML": {"tested_on": "RML", "conditions": "mouse, in vivo, cited from earlier work"}, "[2]": {"conditions": "in vivo; for conc. brain: mouse, po"}, "physchem": {"assay": "physchem", "conditions": "water"}, "[3]": {"molecular_target": "PrP^Sc (RML prion strain) (Mus musculus, UniProt P04925)", "sequence (P04925 23-230 limits assumed)": "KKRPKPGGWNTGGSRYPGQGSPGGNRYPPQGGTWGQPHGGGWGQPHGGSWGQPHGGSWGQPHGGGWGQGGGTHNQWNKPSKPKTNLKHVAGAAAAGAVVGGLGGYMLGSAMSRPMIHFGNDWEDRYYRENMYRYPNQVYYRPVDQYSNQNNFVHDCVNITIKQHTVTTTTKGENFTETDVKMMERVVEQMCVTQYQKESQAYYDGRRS", "assay": "biochemical", "conditions": "for inhibition at 10 µM: read-out: % inhibition PrP^Sc PMCA"}, "[4]": {"conditions": "C57/BL6, mouse, in vivo"}, "[5]": {"conditions": "mouse, in vivo, 2000 mg/kg"}, "RML scrapie [6]": {"tested_on": "RML scrapie", "assay": "whole plant or invertebrate", "assay_type": "in vivo, C57BL/6 mice", "conditions": "for inhibition in vivo at 1 mg: in Mus musculus, po, 2880 h, read-out: % inhibition PrP^Sc in vivo (a)"}, "[7]": {"conditions": "rat, in vivo, 2000 mg/kg"}, "[8]": {"tested_on": "Salmonella typhimurium strains TA 98, TA 100, TA 102, TA 1535 and TA 1537"}, "in vivo": {"assay": "in vivo", "conditions": "C57/BL6, mouse; for half-life: ip, 1 mg"}, "PrP^Sc (vCJD prions)": {"molecular_target": "PrP^Sc (vCJD prions) (Homo sapiens, UniProt P04156)", "assay": "biochemical"}, "actin": {"tested_on": "actin", "assay_type": "biochemical"}, "[9]": {"tested_on": "prion strains RML, ME7, 301C, sCJD, vCJD", "assay_type": "biochemical, mouse and human", "conditions": "1 μl of 10 mM compound solution in DMSO"}, "RML scrapie [10]": {"tested_on": "RML scrapie", "assay_type": "in vivo, C57BL/6 mice", "conditions": "for Median/Mean* Survival Therapy / difference of survival therapy vs control: C57BL/6, RML i.c., 250 mg/kg"}, "[11]": {"tested_on": "rotenone-treated C57Bl/6J mice", "conditions": "mouse, in vivo"}, "MPTP-treated mice": {"tested_on": "MPTP-treated mice", "conditions": "mouse, in vivo"}, "α-synuclein (α-syn)": {"molecular_target": "T1, α-synuclein (α-syn) (Homo sapiens, UniProt P37840)", "T1 construct": "made in house", "assay": "α-synuclein in vitro oligomer formation assay (SIFT)", "assay_type": "biochemical", "conditions": "relative to high control, 10 μM compound, 1 % DMSO, 10 μM FeCl3; read-out: % inhibition α-syn SIFT", "experimental": "Expression and purification of recombinant wild-type α-synuclein (α-syn) was performed according to established protocols. Fluorescent labelling of α-syn and quality control were performed as described.\nThe α-syn aggregation assay was conducted with minor modifications as published previously. […] The concentration of α-syn was approximately 20 nM. In all experiments, α-syn aggregation was induced by final concentrations of 1 % DMSO and 10 μM FeCl3. Compounds were diluted into the assay mixture from 10-fold stock solutions containing 10 % DMSO (v/v), resulting in a final concentration of 1 % DMSO in all samples. “Low control” measurements for threshold setting were obtained without FeCl3 and DMSO. Experiments were started by diluting the 5-fold stock solution of fluorescently labelled α-syn in 50 mM Tris-buffer, pH 7.0, containing 1 % DMSO, 10 μM FeCl3 and compounds in concentrations ranging from 1–10 μM.\nAggregation of α-syn was measured by scanning for intensely fluorescent targets (SIFT). […] Excitation power was 200 μW at 488 nm and 300 μW at 633 nm. Measurement time was 10 s. Scanning parameters were set to 100 μm scan path length, 50 Hz beam scanner frequency, and 2,000 μm positioning table movement. The frequency of specific combinations of “green” and “red” photon counts was recorded in a two-dimensional intensity distribution histogram, as described previously. Evaluation of SIFT data in two-dimensional intensity distribution histograms was performed by summing up the numbers of photons from high intensity bins using a two-dimensional SIFT software module (Evotec-Technologies). For threshold setting, non-aggregated reference samples were used. The photon count in bins above the threshold was considered aggregate signal."}, "[12]": {"conditions": "in vivo; cited from earlier work"}, "prion": {"tested_on": "prion", "conditions": "cited from earlier work"}, "M1000": {"tested_on": "M1000", "conditions": "mouse, in vivo, ip; cited from earlier work"}},
  "note": "Where two headings read alike, the source gives them in different places.",
  "data": [
    {"molecule": "CO[C@@]12[C@H](COC(N)=O)C3=C(C(=O)C(C)=C(N)C3=O)N1C[C@@H]1N[C@@H]12", "note": "[Mitomycin C, reference compound]", "values": [
      {"measurement": "chromosomal damage by positive controls", "setting": "[1]", "result": "significant damage"}
    ]},
    {"molecule": "CCC(C)(C)C(=O)O[C@H]1C[C@@H](C)C=C2C=C[C@H](C)[C@H](CC[C@@H]3C[C@@H](O)CC(=O)O3)[C@H]21", "note": "[Simvastatin]", "values": [
      {"measurement": "Median/Mean* Survival Therapy", "setting": "RML; po, 20 mg/kg", "result": 167, "unit": "days"},
      {"measurement": "difference of survival therapy vs control", "setting": "RML; po, 20 mg/kg", "result": 19, "unit": "days"}
    ]},
    {"molecule": "C=CC[C@@H]1/C=C(\\C)C[C@H](C)C[C@H](OC)[C@H]2O[C@@](O)(C(=O)C(=O)N3CCCC[C@H]3C(=O)O[C@H](/C(C)=C/[C@@H]3CC[C@@H](O)[C@H](OC)C3)[C@H](C)[C@@H](O)CC1=O)[C@H](C)C[C@@H]2OC", "note": "[Tacrolimus]", "values": [
      {"measurement": "Median/Mean* Survival Therapy", "setting": "RML; ip, 5 mg/kg", "result": 35, "unit": "days"},
      {"measurement": "difference of survival therapy vs control", "setting": "RML; ip, 5 mg/kg", "result": 9, "unit": "days"}
    ]},
    {"molecule": "Brc1cccc(-c2cc(-c3ccc4c(c3)OCO4)n[nH]2)c1", "note": "[anle138b, 3-(1,3-benzodioxol-5-yl)-5-(3-bromophenyl)-1H-pyrazole]", "values": [
      {"measurement": "metabolites in brain extracts (HPLC, high resolution MS)", "setting": "[2]; C57/BL6, mouse", "result": "did not identify metabolites of anle138b"},
      {"measurement": "conc. brain", "setting": "[2]", "result": 34.1, "unit": "nmol/g"},
      {"measurement": "solubility", "setting": "physchem", "result": "< 1", "unit": "µM"},
      {"measurement": "EC50", "setting": "[3]", "result": 7.3, "unit": "µM"},
      {"measurement": "inhibition at 10 µM", "setting": "[3]", "result": 84, "unit": "%"},
      {"measurement": "AUC after oral application compared to i.p. application", "setting": "[4]", "result": "approximately 50%"},
      {"measurement": "acute toxicity, single oral administration", "setting": "[5]", "result": "did not reveal any signs of toxicity and no mortality"},
      {"measurement": "% inhibition PrP^Sc in vivo (c)", "setting": "RML scrapie [6]; PrP^Sc level in brain 106 days after i.c. infection, treatment 24 days: 14 days i.p. 0.84 mg, 2 × 5 days oral gavage 1 mg", "result": 108, "unit": "%"},
      {"measurement": "% inhibition PrP^Sc in vivo (b)", "setting": "RML scrapie [6]; PrP^Sc level in spleen 35 days after i.p. infection, 34 days treatment with 1 mg compound oral in peanut butter", "result": 57, "unit": "%"},
      {"measurement": "change of PrPSc levels in brain, mixed application scheme", "setting": "RML scrapie [6]; from 80 dpi: 14 days i.p. 0.84 mg, 2 x 5 days gavage 1 mg, measured at 95 and 106 dpi", "result": "decrease in PrPSc levels"},
      {"measurement": "inhibition in vivo at 1 mg", "setting": "RML scrapie [6]", "result": 78, "unit": "%"},
      {"measurement": "acute toxicity, single oral administration", "setting": "[7]", "result": "not reveal any signs of toxicity and no mortality"},
      {"measurement": "concentration with test item precipitation", "setting": "[8]", "result": "≥ 100", "unit": "µg/plate"},
      {"measurement": "cytotoxicity, preliminary test", "setting": "[8]", "result": "No signs of cytotoxicity"},
      {"measurement": "mutagenic effect (revertant colony numbers)", "setting": "[8]", "result": "No mutagenic effect"},
      {"measurement": "Kp", "setting": "in vivo", "result": "~3"},
      {"measurement": "half-life", "setting": "in vivo; half-life t½ in brain", "result": 2.9, "unit": "h"},
      {"measurement": "half-life", "setting": "in vivo; half-life t½ in serum", "result": 2.4, "unit": "h"},
      {"measurement": "EC50", "setting": "PrP^Sc (vCJD prions)", "result": 7.1, "unit": "µM"},
      {"measurement": "effect on actin polymerization", "setting": "actin", "result": "do not affect actin polymerization"},
      {"measurement": "clastogenic activity, conclusion", "setting": "[1]", "result": "no indications of mutagenic properties"},
      {"measurement": "inhibitory activity in PMCA, all prion strains tested", "setting": "[9]", "result": "strong inhibitory activity in all prion strains tested"},
      {"measurement": "motor performance in prion infected mice", "setting": "RML scrapie [10]; 160 d.p.i., arena movement tracking", "result": "unimpaired"},
      {"measurement": "Median/Mean* Survival Therapy", "setting": "RML scrapie [10]; 0 dpi oral", "result": 355, "unit": "days"},
      {"measurement": "difference of survival therapy vs control", "setting": "RML scrapie [10]; 0 dpi oral", "result": 175, "unit": "days"},
      {"measurement": "Median/Mean* Survival Therapy", "setting": "RML scrapie [10]; 80 dpi oral", "result": 242, "unit": "days"},
      {"measurement": "difference of survival therapy vs control", "setting": "RML scrapie [10]; 80 dpi oral", "result": 74, "unit": "days"},
      {"measurement": "Median/Mean* Survival Therapy", "setting": "RML scrapie [10]; 120 dpi oral", "result": 224, "unit": "days"},
      {"measurement": "difference of survival therapy vs control", "setting": "RML scrapie [10]; 120 dpi oral", "result": 52, "unit": "days"},
      {"measurement": "size distribution of PrP^Sc aggregates (sucrose-gradient centrifugation)", "setting": "RML scrapie [10]; brain homogenates of treated mice, fractions 7–12", "result": "strong reduction of high molecular weight species"},
      {"measurement": "pyknotic nuclei, cerebellar granule cell layer", "setting": "RML scrapie [10]; mouse, in vivo", "result": "significantly reduced number of pyknotic nuclei"},
      {"measurement": "time for which weight loss is prevented", "setting": "RML scrapie [10]; treatment from 80 dpi onwards", "result": "~ 100 days"},
      {"measurement": "time for which further weight loss is inhibited", "setting": "RML scrapie [10]; treatment from 120 dpi", "result": "~ 70 days"},
      {"measurement": "Median survival", "setting": "RML scrapie [10]; treatment from day 80 post i.c. infection (5 mg daily oral)", "result": "242,5"},
      {"measurement": "Median survival", "setting": "RML scrapie [10]; treatment from day 120 post i.c. infection (5 mg daily oral)", "result": "224,0"},
      {"measurement": "1-h stool collection gut motility test", "setting": "[11]", "result": "complete rescue of enteric function"},
      {"measurement": "motor performance (Rotarod)", "setting": "[11]", "result": "significantly improved motor performance"},
      {"measurement": "loss of dopaminergic (TH-positive) neurons in substantia nigra", "setting": "MPTP-treated mice", "result": "significantly ameliorated"}
    ]},
    {"molecule": "Brc1ccccc1-c1cc(-c2ccc3c(c2)OCO3)n[nH]1", "note": "[anle234b]", "values": [
      {"measurement": "conc. brain", "setting": "[2]", "result": 32.1, "unit": "nmol/g"},
      {"measurement": "inhibition at 10 µM", "setting": "[3]", "result": "< 10", "unit": "%"},
      {"measurement": "inhibition in vivo at 1 mg", "setting": "RML scrapie [6]", "result": "< 10", "unit": "%"},
      {"measurement": "inhibition at 10 µM", "setting": "α-synuclein (α-syn)", "result": "< 10", "unit": "%"},
      {"measurement": "inhibitory activity in PMCA, all prion strains tested", "setting": "[9]", "result": "inactive"}
    ]},
    {"molecule": "O=P1(N(CCCl)CCCl)NCCCO1", "note": "(centres unmarked) [cyclophosphamide, reference compound]", "values": [
      {"measurement": "chromosomal damage by positive controls", "setting": "[1]", "result": "significant damage"}
    ]},
    {"molecule": "CCN(CC)CCCC(C)Nc1c2ccc(Cl)cc2nc2ccc(OC)cc12", "note": "(centres unmarked) [quinacrine]", "values": [
      {"measurement": "concentrations reached in the brain", "setting": "[12]", "result": "does not reach sufficient concentrations in the brain"},
      {"measurement": "anti-prion activity in cell culture", "setting": "prion", "result": "high anti-prion activity in cell culture"}
    ]},
    {"molecule": "Na2CaCDTA", "values": [
      {"measurement": "Median/Mean* Survival Therapy", "setting": "M1000", "result": 189, "unit": "days"},
      {"measurement": "difference of survival therapy vs control", "setting": "M1000", "result": 20, "unit": "days"}
    ]}
  ]
}
